Source: EP0624315B1, “Diaryl(pyridinio and isoquinolinio) boron fungicidal agents” (AMERICAN CYANAMID COMPANY, priority 1993, dated 1994)

How the values were obtained:
[1] = tested on: Erysiphe graminis f. sp. tritici; experiment: In vivo fungicidal evaluation, Wheat Powdery Mildew; details: 200 ppm, host plants sprayed, dried, then inoculated; further: ranges in brackets are in %
[2] = tested on: Spodoptera eridania 3rd instar larvae, southern army-worm; experiment: Insecticide evaluation, southern armyworm leaf dip; assay type: in vivo; details: 1000 ppm, 5 days
Description: (§1) The following tests show the efficacy of the compounds as insecticides and acaricides. The evaluations are conducted with solutions of test compounds dissolved or dispersed in 50/50 acetone/water mixtures. The test compound is technical material dissolved or dispersed in said acetone/water mixtures in sufficient amounts to provide the concentrations set forth in Table I below. All concentrations reported herein are in terms of active ingredient. All tests are conducted in a laboratory maintained at about 27 °C. The rating system employed is as follows:
A sieva lima bean leaf expanded to 7 to 8 cm in length is dipped in the test suspension with agitation for 3 seconds and placed in a hood to dry. The leaf is then placed in a 100x10 mm petri dish containing a damp filter paper on the bottom and 10 3rd instar caterpillars. The dish is maintained for 5 days before observations are made of mortality, reduced feeding or any interference with normal moulting.

[3] = tested on: Cercospora beticola; experiment: In vivo fungicidal evaluation, Sugar Beet Cercospora; details: 200 ppm, host plants sprayed, dried, then inoculated; further: ranges in brackets are in %
[4] = tested on: Pythium ultimum (Pythul); experiment: In vitro fungicidal evaluation, mycelial growth inhibition in nutrient broth; assay type: cell-based; details: 25 ppm, 3-4 days at 21°C, rated visually; further: ranges in brackets are in %
Description: (§2) Test compounds are dissolved or suspended in acetone and dispersed into cell well plates containing a suspension of ground fungal mycelia in a nutrient broth. Assay plates are incubated for 3-4 days at 21°C. Growth inhibition is measured visually and is rated using the following scale:
(§3) Untreated controls, solvent blanks and reference standards are included in each test.
(§4) Assay fungi include the plant pathogens, Pythium ultimum (Pythul); Rhizoctonia solani (Rhizso); Fusarium oxysporum f. sp. cucumerinum (Fusoxc); and Pseudocercosporella herpotrichoides (Psdche).
(§5) When more than one test is run, the data are averaged. The compouds evaluated are reported by compound number given in Example 5.

[5] = tested on: Fusarium oxysporum f. sp. cucumerinum (Fusoxc); experiment: as above; assay type: cell-based; details: 25 ppm, 3-4 days at 21°C, rated visually; further: ranges in brackets are in %
Description: as §2, §3, §4, §5

[6] = tested on: Rhizoctonia solani (Rhizso); experiment: as above; assay type: cell-based; details: 25 ppm, 3-4 days at 21°C, rated visually; further: ranges in brackets are in %
Description: as §2, §3, §4, §5

[7] = tested on: Pseudocercosporella herpotrichoides (Psdche); experiment: as above; assay type: cell-based; details: 25 ppm, 3-4 days at 21°C, rated visually; further: ranges in brackets are in %
Description: as §2, §3, §4, §5

[8] = tested on: Botrytis cinerea; experiment: In vivo fungicidal evaluation, Pepper Botrytis; details: 200 ppm, host plants sprayed, dried, then inoculated; further: ranges in brackets are in %
[9] = tested on: Plasmopara viticola; experiment: In vivo fungicidal evaluation, Grape Downy Mildew; details: 200 ppm, host plants sprayed, dried, then inoculated; further: ranges in brackets are in %
[10] = tested on: Alternaria solani; experiment: In vivo fungicidal evaluation, Tomato Early Blight; details: 200 ppm, host plants sprayed, dried, then inoculated; further: ranges in brackets are in %
[11] = tested on: Puccinia recondita f. sp. tritici; experiment: In vivo fungicidal evaluation, Wheat Leaf Rust; details: 200 ppm, host plants sprayed, dried, then inoculated; further: ranges in brackets are in %
[12] = tested on: Venturia inaequalis; experiment: In vivo fungicidal evaluation, Apple Scab; details: 200 ppm, host plants sprayed, dried, then inoculated; further: ranges in brackets are in %
[13] = tested on: Pyricularia oryzae; assay type: in vivo; details: 200 ppm, host plants sprayed, dried, then inoculated
[14] = tested on: Diabrotica undecimpunctata howardi, 3rd instar southern corn rootworm; experiment: Insecticide evaluation, southern corn rootworm soil test; assay type: in vivo; set-up: key: 0 = no effect; 1 = 10-25% kill; 2 = 26-35% kill; 3 = 36-45% kill; 4 = 46-55% kill; 5 = 56-65% kill; 6 = 66-75% kill; 7 = 76-85% kill; 8 = 86-99% kill; 9 = 100% kill; - = No evaluation; details: 50 kg/ha (1.25 mg active ingredient per jar), 6 days
Description: as §1
One cc of fine talc is placed in a 30 mL wide-mouth screw-top glass jar. One mL of the appropriate acetone test solution is pipetted onto the talc so as to provide 1.25 mg of active ingredient per jar. The jars are set under a gentle air flow until the acetone is evaporated. The dried talc is loosened, 1 cc of millet seed is added to serve as food for the insects and 25 mL of moist soil is added to each jar. The jars are capped and the contents thoroughly mixed on a Vortex Mixer. Following this, ten 3rd instar rootworms are added to each jar and the jars are loosely capped to allow air exchange for the larvae. The treatments are held for 6 days before mortality counts are made. Missing larvae are presumed dead, since they decompose rapidly and can not be found. The concentration used in this test corresponds to approximately 50 kg/ha.

[15] = tested on: Tetranychus urticae (OP-resistant strain), 2-spotted spider mite; experiment: Acaricide evaluation, 2-spotted spider mite plant dip; assay type: in vivo; details: 300 ppm, 2 days, adult kill
Description: as §1
Sieva lima bean plants with primary leaves expaned to 7 to 8 cm are selected and cut back to one plant per pot. A small piece is cut from a leaf taken from the main colony and placed on each leaf of the test plants. This is done about 2 hours before treatment to allow the mites to move over to the test plant and to lay eggs. The size of the cut piece is varied to obtain about 100 mites per leaf. At the time of the treatment, the piece of leaf used to transfer the mites is removed and discarded. The mite-infested plants are dipped in the test formulation for 3 seconds with agitation and set in the hood to dry. Plants are kept for 2 days before estimates of adult kill are made.

C[B-](c1ccccc1)(c1ccccc1)[n+]1cccc(Br)c1 [Compound 18, (3-Bromopyridinio)methyldiphenylboron]
WPM (Wheat Powdery Mildew) disease control rating [1]: 0 (0) | Southern Armyworm kill rating [2]: 9 (9 = 100% kill) | SBC (Sugar Beet Cercospora) disease control rating [3]: 6 (75 - 89) | PHTHUL growth inhibition rating [4]: 7 (90 - 99) | FUSOXC growth inhibition rating [5]: 7 (90 - 99) | RHIZSO growth inhibition rating [6]: 7 (90 - 99) | PSDCHE growth inhibition rating [7]: 9 (100) | PB (Pepper Botrytis) disease control rating [8]: 8 (96 - 99) | GDM (Grape Downy Mildew) disease control rating [9]: 4 (45 - 59) | TEB (Tomato Early Blight) disease control rating [10]: 4 (45 - 59) | WLR (Wheat Leaf Rust) disease control rating [11]: 0 (0) | AS (Apple Scab) disease control rating [12]: 0 (0) | RB (Rice Blast) disease control rating [13]: 5 (60 - 74) | Southern Corn Rootworm kill rating [14]: 0 | OP. Res. Mites kill rating [15]: 7 (7 = 76-85% kill)

Methyl(3-methylpyridinio)diphenylboron [Compound 2]
WPM (Wheat Powdery Mildew) disease control rating [1]: 8 (96 - 99) | Southern Armyworm kill rating [2]: 9 (9 = 100% kill) | SBC (Sugar Beet Cercospora) disease control rating [3]: 0 (0) | PHTHUL growth inhibition rating [4]: 9 (100) | FUSOXC growth inhibition rating [5]: 9 (100) | RHIZSO growth inhibition rating [6]: 9 (100) | PSDCHE growth inhibition rating [7]: 9 (100) | PB (Pepper Botrytis) disease control rating [8]: 0 (0) | GDM (Grape Downy Mildew) disease control rating [9]: 9 (100) | TEB (Tomato Early Blight) disease control rating [10]: 0 (0) | WLR (Wheat Leaf Rust) disease control rating [11]: 8 (96 - 99) | AS (Apple Scab) disease control rating [12]: 9 (100) | RB (Rice Blast) disease control rating [13]: 7 (90 - 95) | Southern Corn Rootworm kill rating [14]: 9 (9 = 100% kill) | OP. Res. Mites kill rating [15]: 9 (9 = 100% kill)

(4-Bromoisoquinolinio)bis(p-fluorophenyl)methylboron [Compound 14]
WPM (Wheat Powdery Mildew) disease control rating [1]: 0 (0) | Southern Armyworm kill rating [2]: 9 (9 = 100% kill) | SBC (Sugar Beet Cercospora) disease control rating [3]: 7 (90 - 95) | PHTHUL growth inhibition rating [4]: 9 (100) | FUSOXC growth inhibition rating [5]: 9 (100) | RHIZSO growth inhibition rating [6]: 9 (100) | PSDCHE growth inhibition rating [7]: 9 (100) | PB (Pepper Botrytis) disease control rating [8]: 9 (100) | GDM (Grape Downy Mildew) disease control rating [9]: 7 (90 - 95) | TEB (Tomato Early Blight) disease control rating [10]: 0 (0) | WLR (Wheat Leaf Rust) disease control rating [11]: 0 (0) | AS (Apple Scab) disease control rating [12]: 8 (96 - 99) | RB (Rice Blast) disease control rating [13]: 8 (96 - 99) | Southern Corn Rootworm kill rating [14]: 5 (5 = 56-65% kill) | OP. Res. Mites kill rating [15]: 9 (9 = 100% kill)

(3-Ethyl-4-methylpyridinio)methyldiphenylboron [Compound 5]
WPM (Wheat Powdery Mildew) disease control rating [1]: 9 (100) | Southern Armyworm kill rating [2]: 9 (9 = 100% kill) | SBC (Sugar Beet Cercospora) disease control rating [3]: 0 (0) | PHTHUL growth inhibition rating [4]: 9 (100) | FUSOXC growth inhibition rating [5]: 9 (100) | RHIZSO growth inhibition rating [6]: 9 (100) | PSDCHE growth inhibition rating [7]: 9 (100) | PB (Pepper Botrytis) disease control rating [8]: 0 (0) | GDM (Grape Downy Mildew) disease control rating [9]: 9 (100) | TEB (Tomato Early Blight) disease control rating [10]: 8 (96 - 99) | WLR (Wheat Leaf Rust) disease control rating [11]: 8 (96 - 99) | AS (Apple Scab) disease control rating [12]: 0 (0) | RB (Rice Blast) disease control rating [13]: 0 (0) | Southern Corn Rootworm kill rating [14]: 9 (9 = 100% kill) | OP. Res. Mites kill rating [15]: 8 (8 = 86-99% kill)

(5,6,7,8-Tetrahydroisoquinolinio)methyldiphenylboron [Compound 4]
WPM (Wheat Powdery Mildew) disease control rating [1]: 8 (96 - 99) | SBC (Sugar Beet Cercospora) disease control rating [3]: 8 (96 - 99) | PHTHUL growth inhibition rating [4]: 7 (90 - 99) | FUSOXC growth inhibition rating [5]: 9 (100) | RHIZSO growth inhibition rating [6]: 9 (100) | PSDCHE growth inhibition rating [7]: 9 (100) | PB (Pepper Botrytis) disease control rating [8]: 9 (100) | GDM (Grape Downy Mildew) disease control rating [9]: 9 (100) | TEB (Tomato Early Blight) disease control rating [10]: 6 (75 - 89) | WLR (Wheat Leaf Rust) disease control rating [11]: 9 (100) | AS (Apple Scab) disease control rating [12]: 9 (100) | RB (Rice Blast) disease control rating [13]: 0 (0)

(3-Butylpyridinio)methyldiphenylboron [Compound 3]
WPM (Wheat Powdery Mildew) disease control rating [1]: 8 (96 - 99) | SBC (Sugar Beet Cercospora) disease control rating [3]: 0 (0) | PHTHUL growth inhibition rating [4]: 9 (100) | FUSOXC growth inhibition rating [5]: 9 (100) | RHIZSO growth inhibition rating [6]: 9 (100) | PSDCHE growth inhibition rating [7]: 9 (100) | PB (Pepper Botrytis) disease control rating [8]: 6 (75 - 89) | GDM (Grape Downy Mildew) disease control rating [9]: 9 (100) | TEB (Tomato Early Blight) disease control rating [10]: 8 (96 - 99) | WLR (Wheat Leaf Rust) disease control rating [11]: 8 (96 - 99) | AS (Apple Scab) disease control rating [12]: 9 (100) | RB (Rice Blast) disease control rating [13]: 0 (0)

Butoxy(4-isopropylpyridinio)diphenylboron [Compound 11]
WPM (Wheat Powdery Mildew) disease control rating [1]: 0 (0) | SBC (Sugar Beet Cercospora) disease control rating [3]: 0 (0) | PHTHUL growth inhibition rating [4]: 9 (100) | FUSOXC growth inhibition rating [5]: 9 (100) | RHIZSO growth inhibition rating [6]: 9 (100) | PSDCHE growth inhibition rating [7]: 7 (90 - 99) | PB (Pepper Botrytis) disease control rating [8]: 4 (45 - 59) | GDM (Grape Downy Mildew) disease control rating [9]: 0 (0) | TEB (Tomato Early Blight) disease control rating [10]: 0 (0) | WLR (Wheat Leaf Rust) disease control rating [11]: 0 (0) | AS (Apple Scab) disease control rating [12]: 8 (96 - 99) | RB (Rice Blast) disease control rating [13]: 0 (0)
